Like-named read-outs stand apart in the source and are kept apart here.
Assays:
[1] = tested on: DLD-1 BRCA2−/− cells; assay: Homologous recombination synthetic lethal inhibition of proliferation, DLD-1 BRCA2-/- (Cell Titre Glo 3D); format: cell-based; settings: Homo sapiens
Procedure, shortened: (§1)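 DLD-1 BRCA2−/− and parental DLD-1 cells exposed to 10-point dose range (10 μM to 0.51 nM, 3-fold) in RPMI/10% FBS at 37 °C, with medium and compound replenished on day 6. Viability by Cell Titre Glo 3D luminescence at day 7 (DLD-1) or day 12 (BRCA2−/−); IC50 as concentration halving maximum signal.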

[2] = tested on: DLD-1 cells; assay: Inhibition of proliferation, DLD-1 BRCA2 wt control (Cell Titre Glo 3D); format: cell-based; settings: Homo sapiens
Procedure, shortened: as §1

[3] = DLD-1, DLD-1 BRCA2 −/− cells, mean, read-out: POLQ PD Prolif Lumin BRCA2 −/− mean pIC50 (converted)
[4] = DLD-1, DLD1 BRCA2 wt cells, mean, read-out: POLQ PD Prolif Lumin DLD1 mean PIC50 (converted)
[5] = DLD-1, first proliferation column (c5), DLD-1 BRCA2-/-, read-out: POLQ PD Prolif Lumin (converted)
[6] = DLD-1, second proliferation column (c6), DLD-1 BRCA2 wt control, read-out: POLQ PD Prolif Lumin (converted)

Compound | IC50 [2, 4] [µM] | IC50 [2, 6] [µM] | IC50 [1, 3] [nM] | IC50 [1, 5] [nM]
Cc1ccnc(Cn2c(-c3ccc(N4CCNC4=O)cc3Cl)nc3c(OC4(C)CC4)ncnc32)c1 [Example T107, 1-(3-chloro-4-(6-(1-methylcyclopropoxy)-9-((4-methylpyridin-2-yl)methyl)-9H-purin-8-yl)phenyl)imidazolidin-2-one] |  | > 10 |  | 398
Cc1ccnc(Cn2c(-c3ccc(OC4CNC4)cc3Cl)nc3c(OC4(C)CC4)ncnc32)c1 [Example T111, 8-(4-(azetidin-3-yloxy)-2-chlorophenyl)-6-(1-methylcyclopropoxy)-9-((4-methylpyridin-2-yl)methyl)-9H-purine] |  | > 10 |  | 316
Cc1ccnc(Cn2c(-c3ccc(C(=O)N(C)C)cc3Cl)nc3c(OC4(C)CC4)ncnc32)c1 [Example T112, 3-chloro-N,N-dimethyl-4-(6-(1-methylcyclopropoxy)-9-((4-methylpyridin-2-yl)methyl)-9H-purin-8-yl)benzamide] |  | > 10 |  | 1580
Cc1ccnc(Cn2c(-c3ccc(C(=O)NCCO)cc3Cl)nc3c(OC4(C)CC4)ncnc32)c1 [Example T119, 3-chloro-N-(2-hydroxyethyl)-4-(6-(1-methylcyclopropoxy)-9-((4-methylpyridin-2-yl)methyl)-9H-purin-8-yl)benzamide] |  | > 10 |  | 794
Cc1ccnc(Cn2c(-c3ccc(NC(=O)OCCO)cc3Cl)nc3c(OC4(C)CC4)ncnc32)c1 [Example T123, 2-hydroxyethyl (3-chloro-4-(6-(1-methylcyclopropoxy)-9-((4-methylpyridin-2-yl)methyl)-9H-purin-8-yl)phenyl)carbamate] |  | > 10 |  | 200
Cc1ccnc(Cn2c(-c3ccc(OCCS(C)(=O)=O)cc3Cl)nc3c(OC4(C)CC4)ncnc32)c1 [Example T129, 8-(2-chloro-4-(2-(methylsulfonyl)ethoxy)phenyl)-6-(1-methylcyclopropoxy)-9-((4-methylpyridin-2-yl)methyl)-9H-purine] |  | > 10 |  | 158
Cc1ccnc(Cn2c(-c3ccc(NC(=O)NCCO)cc3Cl)nc3c(OC4(C)CC4)ncnc32)c1 [Example T132, 1-(3-chloro-4-(6-(1-methylcyclopropoxy)-9-((4-methylpyridin-2-yl)methyl)-9H-purin-8-yl)phenyl)-3-(2-hydroxyethyl)urea] |  | > 10 |  | 2000
CN(C)CCOc1ccc(-c2nc3c(OC4(C)CC4)ncnc3n2Cc2cc(Cl)ccn2)c(Cl)c1 [Example T135, 2-(3-chloro-4-(9-((4-chloropyridin-2-yl)methyl)-6-(1-methylcyclopropoxy)-9H-purin-8-yl)phenoxy)-N,N-dimethylethan-1-amine] |  | > 10 |  | 50.1
Cc1ccnc(Cn2c(-c3ccc(CN(C)C)cc3Cl)nc3c(OC4(C)CC4)ncnc32)c1 [Example T136, 1-(3-chloro-4-(6-(1-methylcyclopropoxy)-9-((4-methylpyridin-2-yl)methyl)-9H-purin-8-yl)phenyl)-N,N-dimethylmethanamine] |  | > 10 |  | 501
CNCCOc1ccc(-c2nc3c(OC4(C)CC4)ncnc3n2Cc2cc(C)ccn2)c(Cl)c1 [Example T137, 2-(3-chloro-4-(6-(1-methylcyclopropoxy)-9-((4-methylpyridin-2-yl)methyl)-9H-purin-8-yl)phenoxy)-N-methylethan-1-amine] |  | > 10 |  | 200
Cc1cnc(Cn2c(-c3ccc(OC4CCNCC4)cc3Cl)nc3c(OC4(C)CC4)ncnc32)s1 [Example T138, 2-((8-(2-chloro-4-(piperidin-4-yloxy)phenyl)-6-(1-methylcyclopropoxy)-9H-purin-9-yl)methyl)-5-methylthiazole] |  | > 10 |  | 501
Cc1cnc(Cn2c(-c3ccc(OC[C@H]4CCCN4)cc3Cl)nc3c(OC4(C)CC4)ncnc32)s1 [Example T139, (R)-2-((8-(2-chloro-4-(pyrrolidin-2-ylmethoxy)phenyl)-6-(1-methylcyclopropoxy)-9H-purin-9-yl)methyl)-5-methylthiazole] |  | > 10 |  | 398
Cc1cnc(Cn2c(-c3ccc(O[C@H]4CCN(C)C4)cc3Cl)nc3c(OC4(C)CC4)ncnc32)s1 [Example T140, (S)-2-((8-(2-chloro-4-((1-methylpyrrolidin-3-yl)oxy)phenyl)-6-(1-methylcyclopropoxy)-9H-purin-9-yl)methyl)-5-methylthiazole] |  | > 10 |  | 251
Cc1cnc(Cn2c(-c3cccc(OCCN4CC(O)C4)c3Cl)nc3c(OC4(C)CC4)ncnc32)s1 [Example T142, 1-(2-(2-chloro-3-(6-(1-methylcyclopropoxy)-9-((5-methylthiazol-2-yl)methyl)-9H-purin-8-yl)phenoxy)ethyl)azetidin-3-ol] |  | > 10 |  | 1000
CC1(Oc2ncnc3c2nc(-c2ccc(OCCN4CCNCC4)cc2Cl)n3Cc2ncsc2Cl)CC1 [Example T145, 5-chloro-4-((8-(2-chloro-4-(2-(piperazin-1-yl)ethoxy)phenyl)-6-(1-methylcyclopropoxy)-9H-purin-9-yl)methyl)thiazole] |  | > 10 |  | 2000
CC1(Oc2ncnc3c2nc(-c2ccc(OCCN4CCNCC4)cc2Cl)n3Cc2cnc(Cl)s2)CC1 [Example T146, 2-chloro-5-((8-(2-chloro-4-(2-(piperazin-1-yl)ethoxy)phenyl)-6-(1-methylcyclopropoxy)-9H-purin-9-yl)methyl)thiazole] |  | > 10 |  | 1260
Cc1cnc(Cn2c(-c3ccc(OCCCN(C)C)cc3Cl)nc3c(OC4(C)CC4)ncnc32)s1 [Example T148, 3-(3-chloro-4-(6-(1-methylcyclopropoxy)-9-((5-methylthiazol-2-yl)methyl)-9H-purin-8-yl)phenoxy)-N,N-dimethylpropan-1-amine] |  | > 7.94 |  | 316

Now from value to compound, other results behind:

IC50 [2, 4] [µM] | IC50 [2, 6] [µM] | Compound | IC50 [1, 3] [nM] | IC50 [1, 5] [nM]
> 10 |  | CC1(Oc2ncnc3c2nc(-c2ccc(OCCC(=O)O)cc2Cl)n3Cc2cccc(Cl)c2Cl)CC1 [Example T85, 3-(3-chloro-4-(9-(2,3-dichlorobenzyl)-6-(1-methylcyclopropoxy)-9H-purin-8-yl)phenoxy)propanoic acid] | 794 | 
> 10 |  | CC1(Oc2ncnc3c2nc(-c2ccc(OCCC(=O)O)cc2Cl)n3Cc2cccc(Cl)c2)CC1 [Example T87, 3-(3-chloro-4-(9-(3-chlorobenzyl)-6-(1-methylcyclopropoxy)-9H-purin-8-yl)phenoxy)propanoic acid] | 398 | 
> 10 |  | CC1(Oc2ncnc3c2nc(-c2cccc(OCCC(=O)O)c2Cl)n3Cc2cccc(Cl)c2)CC1 [Example T89, 3-(2-chloro-3-(9-(3-chlorobenzyl)-6-(1-methylcyclopropoxy)-9H-purin-8-yl)phenoxy)propanoic acid] | 39.8 | 
> 10 |  | C[C@@H](Oc1cccc(-c2nc3c(OC4(C)CC4)ncnc3n2Cc2cccc(Cl)c2)c1Cl)C(=O)O [Example T91, (R)-2-(2-chloro-3-(9-(3-chlorobenzyl)-6-(1-methylcyclopropoxy)-9H-purin-8-yl)phenoxy)propanoic acid] | > 10000 | 
> 10 |  | CC1(Oc2ncnc3c2nc(-c2ccc(OCCc4nn[nH]n4)cc2Cl)n3Cc2cccc(Cl)c2)CC1 [Example T92, 8-(4-(2-(2H-tetrazol-5-yl)ethoxy)-2-chlorophenyl)-9-(3-chlorobenzyl)-6-(1-methylcyclopropoxy)-9H-purine] | 2000 | 
 | > 10 | CC(=O)COc1ccc(-c2nc3c(OC4(C)CC4)ncnc3n2Cc2cc(C)ccn2)c(Cl)c1 [Example T104, 1-(3-chloro-4-(6-(1-methylcyclopropoxy)-9-((4-methylpyridin-2-yl)methyl)-9H-purin-8-yl)phenoxy)propan-2-one] |  | 200
 | > 10 | Cc1ccnc(Cn2c(-c3ccc(CCC(N)=O)cc3Cl)nc3c(OC4(C)CC4)ncnc32)c1 [Example T116, 3-(3-chloro-4-(6-(1-methylcyclopropoxy)-9-((4-methylpyridin-2-yl)methyl)-9H-purin-8-yl)phenyl)propanamide] |  | 631
 | > 6.31 | CNC(=O)COc1cccc(-c2nc3c(OC4(C)CC4)ncnc3n2Cc2cc(C)ccn2)c1Cl [Example T120, 2-(2-chloro-3-(6-(1-methylcyclopropoxy)-9-((4-methylpyridin-2-yl)methyl)-9H-purin-8-yl)phenoxy)-N-methylacetamide] |  | 158
 | > 10 | Cc1ccnc(Cn2c(-c3ccc(NC(=O)[C@@H](C)O)cc3Cl)nc3c(OC4(C)CC4)ncnc32)c1 [Example T121, (R)-N-(3-chloro-4-(6-(1-methylcyclopropoxy)-9-((4-methylpyridin-2-yl)methyl)-9H-purin-8-yl)phenyl)-2-hydroxypropanamide] |  | 316
 | > 10 | CNCCCOc1ccc(-c2nc3c(OC4(C)CC4)ncnc3n2Cc2cc(Cl)ccn2)c(Cl)c1 [Example T134, 3-(3-chloro-4-(9-((4-chloropyridin-2-yl)methyl)-6-(1-methylcyclopropoxy)-9H-purin-8-yl)phenoxy)-N-methylpropan-1-amine] |  | 126
 | > 10 | Cc1cnc(Cn2c(-c3cccc(OCCCN(C)C)c3Cl)nc3c(OC4(C)CC4)ncnc32)s1 [Example T149, 3-(2-chloro-3-(6-(1-methylcyclopropoxy)-9-((5-methylthiazol-2-yl)methyl)-9H-purin-8-yl)phenoxy)-N,N-dimethylpropan-1-amine] |  | 316
